The text below walks through data of patent publication US10683293B2, “Optionally fused heterocyclyl-substituted derivatives of pyrimidine useful for the treatment of inflammatory, metabolic, oncologic and autoimmune diseases” (NUEVOLUTION A/S, priority 2014, dated 2020).

The target of the assay is T1, human RORγt (Ligand Binding Domain) (Homo sapiens, UniProt P51449).
T1 construct: purchased Crelux (Planegg, Germany) batch no PC5032-1
T1 sequence (P51449 269-508 limits assumed): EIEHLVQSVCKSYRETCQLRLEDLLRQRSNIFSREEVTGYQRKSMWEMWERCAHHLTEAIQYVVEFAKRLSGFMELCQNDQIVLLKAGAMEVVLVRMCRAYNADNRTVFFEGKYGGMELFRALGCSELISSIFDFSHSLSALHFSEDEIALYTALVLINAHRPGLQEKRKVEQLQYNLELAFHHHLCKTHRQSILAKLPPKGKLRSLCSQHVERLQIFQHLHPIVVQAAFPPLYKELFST
In words: Fluorescence Polarization (FP) Assay. As to conditions: 100 nM human RORγt LBD, 25 nM TAMRA probe, values are activity range bounds. On the procedure:
The activity of the compounds was evaluated using a Fluorescence Polarization (FP) Assay and, RORγ Reporter assay (also referred to as Gal4 assay). The FP assay is an in vitro assay monitoring binding within the ligand binding pocket. The RORγ and the Th17 assays (another suitable assay) are both cell-based assays monitoring functional activity of the compound assayed.
Fluorescence Polarization (FP) Assay
The total volume was 25 μl, in a black Perkin Elmer OptiPlate. As negative control, 1 μl DMSO was used. […] The probe is a fluorescently labeled (TAMRA) RORγt ligand identified by Nuevolution with a total molecular weight of 910 g/mole as shown in Graph A in FIG. 1.
On the technique in general: Fluorescence polarisation rises when a labelled molecule tumbles more slowly, as on binding a larger partner.
The term IC50 denotes the midpoint of a concentration-inhibition curve. High values mean lower potency, low ones higher potency. As to `CN(Cc1cccc(OC(F)(F)F)c1)c1ncnc(NCc2ccc(CC(N)=O)cc2)c1F` [Example A128, 2-[4-[[[5-fluoro-6-[methyl-[[3-(trifluoromethoxy)phenyl]methyl]amino]pyrimidin-4-yl]amino]methyl]phenyl]acetamide], the IC50 is less than 0.5 µM. Compound `CN(Cc1cccc(C(F)(F)F)c1)c1ncnc(NCc2ccc(CC(N)=O)cc2)c1F` [Example A129, 2-[4-[[[5-fluoro-6-[methyl-[[3-(trifluoromethyl)phenyl]methyl]amino]pyrimidin-4-yl]amino]methyl]phenyl]acetamide] had a half-maximal inhibitory concentration (IC50) of less than 0.5 µM. Consider `NC(=O)Cc1ccc(CNc2ncnc(N(Cc3cccc(-c4cccnc4)c3)C3CC3)c2F)cc1` [Example A130, 2-[4-[[[6-[cyclopropyl-[[3-(3-pyridyl)phenyl]methyl]amino]-5-fluoro-pyrimidin-4-yl]amino]methyl]phenyl]acetamide], for which the 50% inhibitory concentration (IC50) is less than 0.5 µM. `CC(c1cccc2ccccc12)N(C)c1ncnc(NCc2ccc(CC(N)=O)cc2)c1F` (stereo not shown) [Example A131, 2-[4-[[[5-fluoro-6-[methyl-[1-(1-naphthyl)ethyl]amino]pyrimidin-4-yl]amino]methyl]phenyl]acetamide] yielded a half-inhibitory concentration (IC50) of less than 0.5 µM.

With `CN(Cc1ccc(-n2cccn2)cc1)c1ncnc(NCC2(CCO)CCOCC2)c1F` [Example A132, 2-[4-[[[5-fluoro-6-[methyl-[(4-pyrazol-1-ylphenyl)methyl]amino]pyrimidin-4-yl]amino]methyl]tetrahydropyran-4-yl]ethanol], the concentration for half-maximal inhibition (IC50) is less than 10 µM. `CN(Cc1ccc(-n2cccn2)cc1)c1ncnc(NCC2(CS(C)(=O)=O)CCOCC2)c1F` [Example A133, 5-fluoro-N6-methyl-N4-[[4-(methylsulfonylmethyl)tetrahydro-pyran-4-yl]methyl]-N6-[(4-pyrazol-1-ylphenyl)methyl]pyrimidine-4,6-diamine] returned a 50% inhibitory concentration (IC50) of less than 2 µM. `CN(Cc1ccc(-n2cccn2)cc1)c1ncnc(NCc2ccc(-c3nnn[nH]3)cc2)c1F` [Example A134, 5-fluoro-N6-methyl-N6-[(4-pyrazol-1-ylphenyl)methyl]-N4-[[4-(1H-tetrazol-5-yl)phenyl]methyl]pyrimidine-4,6-diamine] displayed a concentration for half-maximal inhibition (IC50) of less than 2 µM.

For `CN(Cc1ccc(-n2cccn2)cc1)c1ncnc(NCc2ccc(S(N)(=O)=O)cc2)c1F` [Example A135, 4-[[[5-fluoro-6-[methyl-[(4-pyrazol-1-ylphenyl)methyl]amino]pyrimidin-4-yl]amino]methyl]benzenesulfonamide], the IC50 is less than 10 µM. Compound `COCCNS(=O)(=O)c1ccc(CNc2ncnc(N(C)Cc3ccc(-n4cccn4)cc3)c2F)cc1` [Example A136, 4-[[[5-fluoro-6-[methyl-[(4-pyrazol-1-ylphenyl)methyl]amino]pyrimidin-4-yl]amino]methyl]-N-(2-methoxyethyl)benzenesulfonamide] displayed an IC50 of less than 2 µM.

As to `CN(Cc1ccc(-n2cccn2)cc1)c1ncnc(NCc2ccc(S(=O)(=O)O)cc2)c1F` [Example A137, 4-[[[5-fluoro-6-[methyl-[(4-pyrazol-1-ylphenyl)methyl]amino]pyrimidin-4-yl]amino]methyl]benzenesulfonic acid], the IC50 was less than 0.5 µM. As to `COc1ccc(CN(C)c2ncnc(NCc3ccc(CC(N)=O)cc3)c2F)c(OC)c1` [Example A139, 2-[4-[[[6-[(2,4-dimethoxyphenyl)methyl-methyl-amino]-5-fluoro-pyrimidin-4-yl]amino]methyl]phenyl]acetamide], the concentration for half-maximal inhibition (IC50) was less than 2 µM. In the case of `CN(Cc1cccc(-n2cccn2)c1)c1ncnc(NCC2(O)CCS(=O)(=O)CC2)c1F` [Example A140, 4-[[[5-fluoro-6-[methyl-[(3-pyrazol-1-ylphenyl)methyl]amino]pyrimidin-4-yl]amino]methyl]-1,1-dioxo-thian-4-ol], the IC50 is less than 10 µM. For `CN(Cc1cccc(-n2cccn2)c1)c1ncnc(NCC2CCOCC2)c1F` [Example A141, 5-fluoro-N6-methyl-N6-[(3-pyrazol-1-ylphenyl)methyl]-N4-(tetrahydropyran-4-ylmethyl)pyrimidine-4,6-diamine], the IC50 is less than 2 µM. Turning to `CN(Cc1cccc(-n2cccn2)c1)c1ncnc(NCc2ccc(CS(C)(=O)=O)cc2)c1F` [Example A144, 5-fluoro-N6-methyl-N4-[[4-(methylsulfonylmethyl)phenyl]methyl]-N6-[(3-pyrazol-1-ylphenyl)methyl]pyrimidine-4,6-diamine], the half-inhibitory concentration (IC50) was less than 10 µM. For `CN1CCC(NC(=O)CC2(CNc3ncnc(N(Cc4ccc(C(F)(F)F)cc4)C4CC4)c3F)CCOCC2)C1` (stereo not shown) [Example A152, 2-[4-[[[6-[cyclopropyl-[[4-(trifluoromethyl)phenyl]methyl]amino]-5-fluoro-pyrimidin-4-yl]amino]methyl]tetrahydropyran-4-yl]-N-(1-methylpyrrolidin-3-yl)acetamide], the IC50 is less than 10 µM. For `CN(C)CCCNC(=O)CC1(CNc2ncnc(N(Cc3ccc(C(F)(F)F)cc3)C3CC3)c2F)CCOCC1` [Example A153, 2-[4-[[[6-[cyclopropyl-[[4-(trifluoromethyl)phenyl]methyl]amino]-5-fluoro-pyrimidin-4-yl]amino]methyl]tetrahydropyran-4-yl]-N-[3-(dimethylamino)propyl]acetamide], the half-maximal inhibitory concentration (IC50) was less than 10 µM. Regarding `O=C(O)CNC(=O)CC1(CNc2ncnc(N(Cc3ccc(C(F)(F)F)cc3)C3CC3)c2F)CCOCC1` [Example A154, 2-[[2-[4-[[[6-[cyclopropyl-[[4-(trifluoromethyl)phenyl]methyl]amino]-5-fluoro-pyrimidin-4-yl]amino]methyl]tetrahydropyran-4-yl]acetyl]amino]acetic acid], the IC50 is less than 2 µM. With `O=C(O)CCNC(=O)CC1(CNc2ncnc(N(Cc3ccc(C(F)(F)F)cc3)C3CC3)c2F)CCOCC1` [Example A155, 3-[[2-[4-[[[6-[cyclopropyl-[[4-(trifluoromethyl)phenyl]methyl]amino]-5-fluoro-pyrimidin-4-yl]amino]methyl]tetrahydropyran-4-yl]acetyl]amino]propanoic acid], the IC50 is less than 1 µM. For `COc1cc(CN(c2ncnc(NCc3ccc(CC(N)=O)cc3)c2F)C2CC2)ccc1Cl` [Example A156, 2-[4-[[[6-[(4-chloro-3-methoxy-phenyl)methyl-cyclopropyl-amino]-5-fluoro-pyrimidin-4-yl]amino]methyl]phenyl]acetamide] the value was less than 0.5 µM; for `Cc1ccc(CNc2ncnc(N(Cc3ccc(C(F)(F)F)cc3)C3CC3)c2F)nn1` [Example A157, N4-cyclopropyl-5-fluoro-N6-[(6-methylpyridazin-3-yl)methyl]-N4-[[4-(trifluoromethyl)phenyl]methyl] pyrimidine-4,6-diamine], less than 0.5 µM; for `CS(=O)(=O)N1CCC(CNc2ncnc(N(Cc3ccc(C(F)(F)F)cc3)C3CC3)c2F)C1` (stereo not shown) [Example A158, N4-cyclopropyl-5-fluoro-N6-[(1-methylsulfonylpyrrolidin-3-yl)methyl]-N4-[[4-(trifluoromethyl)phenyl]methyl] pyrimidine-4,6-diamine], less than 0.5 µM. For `Cc1cnc(CNc2ncnc(N(Cc3ccc(C(F)(F)F)cc3)C3CC3)c2F)cn1` [Example A159, N4-cyclopropyl-5-fluoro-N6-[(5-methylpyrazin-2-yl)methyl]-N4-[[4-(trifluoromethyl)phenyl]methyl] pyrimidine-4,6-diamine] the value was less than 0.5 µM; for `CS(=O)(=O)N1CC(CNc2ncnc(N(Cc3ccc(C(F)(F)F)cc3)C3CC3)c2F)C1` [Example A160, N4-cyclopropyl-5-fluoro-N6-[(1-methylsulfonylazetidin-3-yl)methyl]-N4-[[4-(trifluoromethyl)phenyl]methyl] pyrimidine-4,6-diamine], less than 0.5 µM; for `NC(=O)Cc1ccc(CNc2ncnc(N(Cc3cccc(-n4cncn4)c3)C3CC3)c2F)cc1` [Example A161, 2-[4-[[[6-[cyclopropyl-[[3-(1,2,4-triazol-1-yl)phenyl]methyl]amino]-5-fluoro-pyrimidin-4-yl]amino]methyl]phenyl]acetamide], less than 0.5 µM. Regarding `NC(=O)Cc1ccc(CNc2ncnc(N(Cc3ccc4c(c3)OCC(=O)N4)C3CC3)c2F)cc1` [Example A162, 2-[4-[[[6-[cyclopropyl-[(3-oxo-4H-1,4-benzoxazin-7-yl)methyl]amino]-5-fluoro-pyrimidin-4-yl]amino]methyl]phenyl]acetamide], the 50% inhibitory concentration (IC50) is less than 0.5 µM.

With `N#Cc1cccc(CN(c2ncnc(NCc3ccc(CC(N)=O)cc3)c2F)C2CC2)c1` [Example A163, 2-[4-[[[6-[(3-cyanophenyl)methyl-cyclopropyl-amino]-5-fluoro-pyrimidin-4-yl]amino]methyl]phenyl]acetamide], the 50% inhibitory concentration (IC50) is less than 0.5 µM. Consider `CS(=O)(=O)N1CCC(CNc2ncnc(N(Cc3ccc(C(F)(F)F)cn3)C3CC3)c2F)C1` (stereo not shown) [Example A166, N6-cyclopropyl-5-fluoro-N4-[(1-methylsulfonylpyrrolidin-3-yl)methyl]-N6-[[5-(trifluoromethyl)-2-pyridyl]methyl]pyrimidine-4,6-diamine], for which the half-inhibitory concentration (IC50) is less than 10 µM. `CS(=O)(=O)N1CC(CNc2ncnc(N(Cc3ccc(C(F)(F)F)cn3)C3CC3)c2F)C1` [Example A173, N4-cyclopropyl-5-fluoro-N6-[(1-methylsulfonylazetidin-3-yl)methyl]-N4-[[5-(trifluoromethyl)-2-pyridyl]methyl]pyrimidine-4,6-diamine] came in with an IC50 of less than 10 µM.
